Experimental data from ChEMBL document CHEMBL2417371, “Herbimycins D-F, ansamycin analogues from Streptomyces sp. RM-7-15” (J Nat Prod, 2013).

Test system: A549
Assay: Cytotoxicity against human A549 cells after 2 days by AlamarBlue assay
Conditions: A549, 48 h

COC1=C2C[C@@H](C)C[C@H](OC)[C@H](O)[C@@H](C)/C=C(\C)[C@H](OC(N)=O)[C@@H](OC)/C=C\C=C(/C)C(=O)NC(=CC1=O)C2=O [GELDANAMYCIN] showed an IC50 of 150 nM.

Compound CO[C@H]1[C@@H](OC)C[C@H](C)[C@@H](OC)C2=CC(=O)C=C(NC(=O)/C(C)=C/C=C/[C@H](OC)[C@@H](OC(N)=O)/C(C)=C/[C@@H]1C)C2=O [HERBIMYCIN] has an IC50 of 150 nM.
